Some test systems named below: TK-10 renal; SN12C renal; MDA-MB-231 breast; CCRF-CEM leukemia; RPMI-8226 leukemia; MOLT-4 leukemia; NCI-H460 lung; PC-3 prostate; NCI/ADR-RES ovarian; HT29 colon.
Holding throughout (assay): DTP human tumour cell line panel, 48 h

Values joined by “and” are separate entries in the source; they are usually repeats but may differ in a detail not shown here. Identical values can stand only once.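 1) Cells in 96-well plates. 2) Compound, 48 h, 5 concentrations. 3) Linear interpolation between surrounding doses. 4) Unreached endpoint = highest concentration. At the GI50, growth is halved. Definition used: TGI = concentration required for complete inhibition of growth.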 Some results are limits rather than exact numbers.

For `CS(=O)(=O)CCNCc1ccc(-c2ccc3ncnc(Nc4ccc(OCc5ccccc5)c(C(F)(F)F)c4)c3c2)o1`, the GI50 (commonly the concentration giving 50% growth inhibition) is 7.61 µM in the assay with TK-10 renal; 5.22 µM in the assay on SN12C renal; 4.55 µM in the assay with MDA-MB-231 breast; 7.29 µM in the assay with CCRF-CEM leukemia; 7.37 µM in the assay with RPMI-8226 leukemia; 5.77 µM with MOLT-4 leukemia. Further, the GI50 in the assay with NCI-H460 lung is 4.8 µM; in the assay on PC-3 prostate, 6.88 µM; with NCI/ADR-RES ovarian, 7.03 µM; in the assay with HT29 colon it was 4.95 µM. In addition, the TGI (in general, the concentration giving total growth inhibition) in the assay with TK-10 renal is 22.7 µM; with SN12C renal, 12.3 µM; with MDA-MB-231 breast it was 8.66 µM; with CCRF-CEM leukemia, above 23.1 µM; in the assay on RPMI-8226 leukemia it was 18.2 µM; in the assay with MOLT-4 leukemia, 17.9 µM. Besides, the TGI is 9.34 µM in the assay on NCI-H460 lung, above 21 µM in the assay on PC-3 prostate, above 25 µM in the assay with NCI/ADR-RES ovarian and 9.05 µM in the assay on HT29 colon.
For `CCOC(=O)[C@H](CSSc1ncnc2cc[nH]c12)NC(=O)[C@@H](C)c1ccc2cc(OC)ccc2c1`, the GI50 with TK-10 renal is 0.265 µM; with SN12C renal it was 3.98 µM; with MDA-MB-231 breast it was 1.08 µM; in the assay on CCRF-CEM leukemia it was 0.532 µM; in the assay with RPMI-8226 leukemia, 0.282 µM; in the assay on MOLT-4 leukemia it was 0.388 µM. Besides, the GI50 with NCI-H460 lung was 3.04 µM; with PC-3 prostate, 2.78 µM; in the assay with NCI/ADR-RES ovarian, 0.687 µM; in the assay on HT29 colon, 1.38 µM. The TGI is above 59.6 µM in the assay with TK-10 renal; above 100 µM in the assay with SN12C renal; above 100 µM with MDA-MB-231 breast; above 100 µM with CCRF-CEM leukemia; above 100 µM in the assay with RPMI-8226 leukemia; above 100 µM in the assay on MOLT-4 leukemia. The TGI in the assay on NCI-H460 lung, in the assay with PC-3 prostate, in the assay with NCI/ADR-RES ovarian and in the assay on HT29 colon was above 100 µM throughout.
`COc1ccc(-c2cc(-c3ccc(Nc4nc(Nc5ccc(Cl)cc5)nc(Nc5ccc(Cl)cc5)n4)cc3)no2)cc1`: the GI50 is 20.4 µM with TK-10 renal; 20.2 µM with SN12C renal; 16.4 µM in the assay with MDA-MB-231 breast; 3.27 µM with CCRF-CEM leukemia; 13.1 µM with RPMI-8226 leukemia; 1.39 µM with MOLT-4 leukemia. Moreover, the GI50 with NCI-H460 lung is 5.58 µM; with PC-3 prostate it was 3.65 µM; in the assay on NCI/ADR-RES ovarian, 16.3 µM; in the assay on HT29 colon, 15.1 µM. Besides, the TGI was 72.7 µM in the assay on TK-10 renal; above 100 µM with SN12C renal; above 100 µM in the assay on MDA-MB-231 breast; 11.6 µM in the assay with CCRF-CEM leukemia; 48.2 µM in the assay on RPMI-8226 leukemia; 5.44 µM in the assay on MOLT-4 leukemia. Also, the TGI with NCI-H460 lung stood at 25.2 µM; with PC-3 prostate, 25.5 µM; in the assay with NCI/ADR-RES ovarian, 53.9 µM; in the assay on HT29 colon, 59.9 µM.
For the molecule `O=c1oc2ccc(Cl)cc2c(=O)n1-c1ccc(Cl)cc1F`, the GI50 in the assay with TK-10 renal is 1.59 µM; with SN12C renal, 0.431 µM; with MDA-MB-231 breast, 0.397 µM; in the assay with CCRF-CEM leukemia, 1.7 µM; in the assay on RPMI-8226 leukemia, 0.28 µM; with MOLT-4 leukemia, 0.581 µM. Moreover, the GI50 in the assay on NCI-H460 lung was 0.412 µM; with PC-3 prostate it was 0.812 µM; with NCI/ADR-RES ovarian, 0.532 µM; with HT29 colon it was 3.33 µM. For the same molecule, the total growth inhibition concentration (TGI) stood at 17.7 µM with TK-10 renal; 3.78 µM with SN12C renal; 4.59 µM in the assay with MDA-MB-231 breast; 10.4 µM with CCRF-CEM leukemia; 1.09 µM with RPMI-8226 leukemia; 2.69 µM in the assay with MOLT-4 leukemia. Besides, the TGI in the assay with NCI-H460 lung was 11 µM; in the assay with PC-3 prostate, 5.04 µM; with NCI/ADR-RES ovarian, 3.79 µM; in the assay with HT29 colon it was above 33.5 µM.
`CN(C)CC/C=C1\c2ccccc2Sc2ccc(Cl)cc21`: the GI50 in the assay with TK-10 renal was 1.91 µM; in the assay on SN12C renal it was 2.84 µM; in the assay on MDA-MB-231 breast it was 2.12 µM; with CCRF-CEM leukemia, 3.36 µM; in the assay with RPMI-8226 leukemia it was 2.69 µM; in the assay on MOLT-4 leukemia, 3.44 µM. Also, the GI50 is 2.02 µM in the assay on NCI-H460 lung, 3.03 µM in the assay on PC-3 prostate, 2.42 µM with NCI/ADR-RES ovarian and 1.98 µM in the assay on HT29 colon. The TGI in the assay on TK-10 renal was 3.95 µM and 28.3 µM; in the assay with SN12C renal, 13.7 µM and 29.9 µM; in the assay with MDA-MB-231 breast, 9.32 µM and 28.3 µM; with CCRF-CEM leukemia, 15.4 µM and 25.2 µM; with RPMI-8226 leukemia, 9.19 µM and 17.2 µM; with MOLT-4 leukemia it was 9.98 µM and 25.9 µM. In addition, the concentration for total growth inhibition (TGI) in the assay with NCI-H460 lung is 3.95 µM and 28.8 µM; in the assay on PC-3 prostate, 12.5 µM and 26 µM; in the assay on NCI/ADR-RES ovarian it was 8.24 µM and 30.8 µM; in the assay on HT29 colon it was 3.96 µM and 16.4 µM.
In the case of `CS(=O)(=O)c1ccc(N/N=C/c2c(-c3ccc(S(C)(=O)=O)cc3)[nH]c3ccc(F)cc23)cc1`, the GI50 with TK-10 renal was 2.95 µM; with SN12C renal it was 2.97 µM; with MDA-MB-231 breast, 1.69 µM; in the assay on CCRF-CEM leukemia it was 1.2 µM; with RPMI-8226 leukemia, 1.15 µM; in the assay on MOLT-4 leukemia it was 1.19 µM. For the same molecule, the GI50 was 1.77 µM with NCI-H460 lung, 2.18 µM in the assay on PC-3 prostate, above 50 µM in the assay with NCI/ADR-RES ovarian and 2.08 µM in the assay on HT29 colon. Besides, the TGI with TK-10 renal is above 50 µM; in the assay on SN12C renal, above 50 µM; with MDA-MB-231 breast it was above 50 µM; in the assay with CCRF-CEM leukemia, above 50 µM; in the assay on RPMI-8226 leukemia, 2.9 µM; in the assay with MOLT-4 leukemia, above 50 µM. For the same molecule, the TGI in the assay with NCI-H460 lung, in the assay with PC-3 prostate, in the assay on NCI/ADR-RES ovarian and in the assay with HT29 colon was above 50 µM throughout.
On to `CCCCCCCCCCCCCCCCC1=CC(=O)C=C(OC)C1=O`, for which the TGI with TK-10 renal, with SN12C renal, in the assay on MDA-MB-231 breast, in the assay on CCRF-CEM leukemia, in the assay on RPMI-8226 leukemia and with MOLT-4 leukemia was above 100 µM each time. Besides, the TGI in the assay on NCI-H460 lung, with PC-3 prostate, in the assay on NCI/ADR-RES ovarian and with HT29 colon was above 100 µM throughout.
Regarding `CCCCCCCCCCCCCOC(=O)c1c(C)[nH]c(/C=C2\N=C(c3ccc[nH]3)C=C2OC)c1C`, the GI50 is 0.174 µM in the assay on TK-10 renal; 0.156 µM in the assay with SN12C renal; below 0.0314 µM in the assay with MDA-MB-231 breast; 0.0303 µM with CCRF-CEM leukemia; 0.0498 µM with RPMI-8226 leukemia; 0.0807 µM in the assay with MOLT-4 leukemia. In addition, the GI50 with NCI-H460 lung is below 0.017 µM; in the assay with PC-3 prostate, 0.02 µM; with NCI/ADR-RES ovarian it was 0.116 µM; with HT29 colon, below 0.0126 µM. The TGI with TK-10 renal is 20 µM; in the assay with SN12C renal, above 100 µM; in the assay with CCRF-CEM leukemia, above 100 µM; in the assay on RPMI-8226 leukemia it was above 100 µM; in the assay with MOLT-4 leukemia, above 100 µM; in the assay on NCI-H460 lung it was above 100 µM. In addition, the TGI in the assay on PC-3 prostate, in the assay on NCI/ADR-RES ovarian and in the assay on HT29 colon was above 100 µM in each case.
Consider `O=S(=O)(/C=C/C=C/S(=O)(=O)c1ccccc1)c1ccccc1`, for which the GI50 was 1.35 µM in the assay with TK-10 renal; 1.87 µM with MDA-MB-231 breast; 4.01 µM with NCI-H460 lung; 1.9 µM with PC-3 prostate; 2.16 µM in the assay on NCI/ADR-RES ovarian; 1.4 µM with HT29 colon. Also, the TGI in the assay with TK-10 renal is 2.95 µM and 2.69 µM; in the assay on SN12C renal, 4.16 µM; with MDA-MB-231 breast, 3.37 µM and 3.73 µM; in the assay with CCRF-CEM leukemia, 0.691 µM and 0.424 µM; with RPMI-8226 leukemia it was 1.66 µM; with MOLT-4 leukemia, 1.85 µM. Besides, the TGI with NCI-H460 lung is 16.9 µM; in the assay with PC-3 prostate it was 7.38 µM and 3.98 µM; in the assay with NCI/ADR-RES ovarian, 3.89 µM and 4.68 µM; in the assay on HT29 colon it was 2.69 µM and 2.85 µM.
`CC(=O)[O-].CC(=O)[O-].[Mn+2].c1ccc(/C(=N\Nc2ccccn2)c2ccccn2)cc1`: the TGI came out at 54.6 µM in the assay with TK-10 renal; 6.83 µM in the assay with SN12C renal; 16.3 µM in the assay with MDA-MB-231 breast; 0.402 µM with CCRF-CEM leukemia; 7.04 µM in the assay on RPMI-8226 leukemia; 1.29 µM in the assay with MOLT-4 leukemia. Further, the TGI in the assay on NCI-H460 lung worked out at 1.14 µM; with PC-3 prostate, 14.5 µM; with NCI/ADR-RES ovarian, 0.0989 µM; in the assay with HT29 colon, 11.3 µM. The GI50 with MDA-MB-231 breast was 0.0399 µM; in the assay with MOLT-4 leukemia, 0.00103 µM; in the assay with NCI/ADR-RES ovarian it was 0.0251 µM; in the assay on HT29 colon, 0.00276 µM.
Regarding `COc1ccc(-c2coc3ncnc(N)c23)cc1`, the GI50 with TK-10 renal, with SN12C renal, in the assay on MDA-MB-231 breast, with CCRF-CEM leukemia, with RPMI-8226 leukemia and in the assay on MOLT-4 leukemia was above 25 µM in each case. For the same molecule, the GI50 with NCI-H460 lung, with PC-3 prostate, with NCI/ADR-RES ovarian and with HT29 colon was above 25 µM throughout. Also, the TGI in the assay on TK-10 renal, in the assay on SN12C renal, in the assay on MDA-MB-231 breast, with CCRF-CEM leukemia, in the assay on RPMI-8226 leukemia and in the assay on MOLT-4 leukemia was above 25 µM in each case. Further, the TGI with NCI-H460 lung, in the assay on PC-3 prostate, with NCI/ADR-RES ovarian and in the assay on HT29 colon was above 25 µM in each case.
Regarding `Nc1ncc(-c2cnn(C3CCNCC3)c2)cc1-c1nc2ccccc2o1`, the GI50 was 0.924 µM in the assay on TK-10 renal; 0.478 µM in the assay on SN12C renal; 2.32 µM in the assay on MDA-MB-231 breast; 0.235 µM in the assay on CCRF-CEM leukemia; 0.857 µM in the assay on RPMI-8226 leukemia; 0.361 µM in the assay on MOLT-4 leukemia. The GI50 is 0.998 µM in the assay with NCI-H460 lung, 1.59 µM in the assay on PC-3 prostate, 3.47 µM with NCI/ADR-RES ovarian and 0.441 µM in the assay on HT29 colon. Also, the TGI was 4.04 µM in the assay on TK-10 renal; 4.41 µM in the assay with SN12C renal; 6.56 µM with MDA-MB-231 breast; 0.677 µM in the assay on CCRF-CEM leukemia; 2.7 µM in the assay with RPMI-8226 leukemia; 1.32 µM with MOLT-4 leukemia. Further, the TGI in the assay with NCI-H460 lung is 2.54 µM; in the assay on PC-3 prostate it was 6.68 µM; in the assay on NCI/ADR-RES ovarian, 13.4 µM; in the assay with HT29 colon it was 2.63 µM.

For the origin of these results see PubChem BioAssay (NCI).
